{"source": "patent US6458820B1", "about": "“Method for preventing or the progression of neuronal damage with pramipexole as a neuroprotective agent” (Pharmacia & Upjohn Company, priority 1994, dated 2002)", "key": {"[1]": {"test_system": "cerebellar granular cells", "assay": "L-dopa toxicity in primary cultures of cerebellar granular cells, viability by 14C-aminoisobutyric acid uptake", "format": "cell-based, Sprague Dawley rats", "conditions": "for % of control* (viability, radioactivity): mean of triplicates +/- S.D.", "method": "Primary cultures of cerebellar granular cells were prepared from 8-day-old Sprague Dawley rats (Charles River, Portage, Mich.) as described previously (1). […] Glial cell proliferation was prevented by adding cytosine-arabinofuranoside-monophosphate (Sigma, St. […] Experiments were started after cells were 8 days in vitro (8 DIV). Cells were washed with two ml of serum free growth medium. Concentrations of 100X stock solutions of PPX and the (+) enantiomer in serum free growth medium were made. These were delivered to cells by adding 20 ul to cells in growth medium per well. […] Cells were incubated under the above conditions for 24 hrs. […] Cells were solubilized, following a wash, with 0.5% Triton X-100. The solubilized cells were then counted for radioactivity on a scintillation counter. Data was expressed as the mean of triplicates ±S.D. for each point."}, "dopaminergic receptors": {"test_system": "dopaminergic receptors", "assay": "Battery of binding assays, dopaminergic receptors"}, "[2]": {"test_system": "rat model of cerebral infarction", "conditions": "administered before the event; cited from earlier work"}, "[3]": {"test_system": "gerbil model of global cerebral ischemia", "conditions": "in vivo; cited from earlier work"}, "[4]": {"test_system": "nigrostriatal dopamine neurons", "method": "We examined histologically retrograde degeneration of the dopaminergic nigrostriatal (NS) tract over 28 days in gerbils subjected to a 10-minute period of forebrain ischemia via bilateral carotid occlusion.\nThe administration of pramipexole was via an initial dose of 1 mg/kg PO 60 minutes after ischemia and again at the end of day 1 followed by twice daily dosing for the next 26 days."}}, "note": "“Also recorded” adds a separate entry of the source. Counter-ions that a name gives are not always drawn."}
{"smiles": "CCCNC1CCc2nc(N)sc2C1.Cl.Cl", "note": "(single isomer, unassigned; (+)) [(+) enantiomer, (+)-enantiomer of 2-amino-6-n-propylamino-4,5,6,7-tetrahydrobenzothiazole dihydrochloride]", "values": [{"measurement": "viability measurements versus control cells (in words)", "setting": "[1]; 10 uM compound, L-dopa treated cells", "result": "equal to control cells not exposed to L-dopa"}, {"measurement": "neuroprotection against L-dopa toxicity (in words)", "setting": "[1]; cerebellar granule cells in culture, dihydrochloride", "result": "blocked L-dopa toxicity; also recorded: equally as potent and effective compared to pramipexole"}, {"measurement": "binding activity (in words)", "setting": "adrenergic receptors", "result": "inactive"}, {"measurement": "binding activity (in words)", "setting": "serotonergic receptors", "result": "inactive"}, {"measurement": "binding activity (in words)", "setting": "dopaminergic receptors", "result": "less active"}]}
{"smiles": "N[C@@H](Cc1ccc(O)c(O)c1)C(=O)O", "note": "[L-dopa, reference compound]", "values": [{"measurement": "Toxicity of L-dopa", "setting": "[1]; 100 uM L-dopa, 24 hrs", "result": 64.8, "unit": "%"}]}
{"smiles": "CCN(CC)C(=O)N[C@H]1C=C2c3cccc4[nH]cc(c34)C[C@H]2N(C)C1", "note": "[Lisuride]", "values": [{"measurement": "brain edema", "setting": "[2]", "result": "reduced"}, {"measurement": "survival time", "setting": "[2]", "result": "prolonged"}]}
{"smiles": "c1cnc(N2CCN(Cc3ccc4c(c3)OCO4)CC2)nc1", "note": "[Piribedil]", "values": [{"measurement": "functional and biochemical parameters", "setting": "[3]", "result": "have an effect"}]}
{"smiles": "CCCN[C@H]1CCc2nc(N)sc2C1", "note": "[Pramipexole, (−)-enantiomer of 2-amino-6-n-propylamino-4,5,6,7-tetrahydrobenzothiazole-dihydrochloride]", "values": [{"measurement": "% of control* (viability, radioactivity)", "setting": "[1]; 1 nM compound, 100 uM L-dopa, 24 hrs", "result": "30.0 +/− 6.5 % of control"}, {"measurement": "% of control* (viability, radioactivity)", "setting": "[1]; 10 nM compound, 100 uM L-dopa, 24 hrs", "result": "39.2 +/− 9.4 % of control"}, {"measurement": "% of control* (viability, radioactivity)", "setting": "[1]; 100 nM compound, 100 uM L-dopa, 24 hrs", "result": "64.8 +/− 4.7 % of control"}, {"measurement": "% of control* (viability, radioactivity)", "setting": "[1]; 300 nM compound, 100 uM L-dopa, 24 hrs", "result": "76.2 +/− 7.3 % of control"}, {"measurement": "% of control* (viability, radioactivity)", "setting": "[1]; 1000 nM compound, 100 uM L-dopa, 24 hrs", "result": "65.5 +/− 14.8 % of control"}, {"measurement": "% of control* (viability, radioactivity)", "setting": "[1]; 3000 nM compound, 100 uM L-dopa, 24 hrs", "result": "84.9 +/− 0.6 % of control"}, {"measurement": "% of control* (viability, radioactivity)", "setting": "[1]; 10000 nM compound, 100 uM L-dopa, 24 hrs", "result": "90.0 +/− 11.5 % of control"}, {"measurement": "EC50", "setting": "[1]; Rattus norvegicus, cerebellar granule cells in culture, L-dopa, read-out: EC50 for blocking L-dopa toxicity", "result": "300 to 1000", "unit": "nM"}, {"measurement": "attenuation of 28-day post-ischemic loss of NS DA neurons", "setting": "[4]; Example 1, 1 mg/kg PO BID beginning at 1 hr after insult, p<0.01 vs vehicle-treated", "result": 36, "unit": "%"}, {"measurement": "increase in nigrostriatal dopamine neurons compared to vehicle", "setting": "[4]; Example 2, twice daily dose of 0.3 mg/kg, threshold effect", "result": 14, "unit": "%"}, {"measurement": "improvement in 28 day post-ischemic dopamine neuronal survival", "setting": "[4]; Example 2, twice daily dose of 1 mg/kg PO, p<0.0001 vs vehicle-treated", "result": 38, "unit": "%"}]}
